{
  "source": "patent US20210259954A1",
  "about": "“CILIA-TARGETING NANOPARTICLES” (Chapman University, priority 2019, published 2021)",
  "key": {"primary cilia [1]": {"tested_on": "primary cilia", "experiment": "Ca2+ and NO imaging under fluid shear stress (Example 1)", "type": "cell-based", "conditions": "fluid shear 0.5 dyn/cm^2, vs corresponding controls", "description": "Ca^2+ and NO Imaging. For monolayer cell populations, intracellular measurements were obtained. […] After washed to remove excess Fura-2 AM, cytosolic Ca^2+ images were captured every second by recording Ca^2+-bound Fura-2 AM excitation fluorescence at 340/380 nm and emission at 510 nm. For intracellular nitric oxide (NO) measurements, the cells were incubated for 30 minutes at 37° C. with 20 μM DAF-FM (Cayman Chemicals). NO was then measured every second at the excitation and emission wavelengths of 495 and 515 nm, respectively. The cells were placed in PBS during the experiments and observed with a Nikon Eclipse Ti microscope. Fluid shear stress was then applied to cells through InsTech P720 peristaltic pumps with an inlet and outlet setup. The fluid was perfused through cell monolayers at a sub-minimal shear stress of 0.5 dyn/cm^2.\nIn single-cell studies, cells were grown on 2% Formvar® and transfected with the Ca^2+ fluorescence reporter 5HT6-mCherry-G-GECO1.0 (Addgene) using the JetPrime transfection reagent (Polyplus transfection). The shear stress ranged from 0.01-1.0 dyn/cm^2 and was accurately measured and controlled at all times. […] For these experiments, none of the CT-NPs contained AF594 dye to avoid interference with the mCherry signal. Confocal laser scanning microscopy in fast-scan mode was used to avoid potential excessive photo bleaching. […]"}, "[2]": {"tested_on": "Tie2Cre⋅Pkd2^flox/flox mice", "experiment": "Working heart perfusion system, hearts of treated Pkd2 mice (Example 2)", "type": "in vivo, mouse", "quoted_text": "All mouse experiments were performed by two operators who were blinded to the experimental conditions. […] One-week-old Tie2Cre⋅Pkd2^WT/WT (with Cre activation; control group), Tie2Cre⋅Pkd2^flox/flox (without Cre activation; control group) or Tie2Cre⋅Pkd2^flox/flox (with Cre activation; experimental group) mice were intraperitoneally injected with 250 μg of tamoxifen in a 50-μL volume daily for five consecutive days.\nThe ex vivo measurements of heart parameters were recorded using a mouse working heart system from Emka Technologies to study heart function independently of neuronal innervation or humoural effects. This system collected data regarding the cardiac contractile strength, electrical heart propagation or ECG and other cardiac functions, including the HR, LVP, LVV, left atrial pressure (LAP), aortic out flow (AOF), stroke volume (SV), cardiac output (CO), end diastolic/systolic volume (Edv-Esv), rate of left atrial pressure raise (+dp/dt) and fall (−dt/dt), and the preload, afterload, and main aortic pressure. Heparin (100 units, IP), xylazine (10-15 mg/kg, IP), and ketamine (200-350 mg/kg, IP) were used to prevent blood coagulation in the coronary arteries and to anaesthetize the mice. After cannulation, the heart was perfused with Krebs-Ringer superfusion solution (in mM: 125 NaCl, 2.5 KCl, 1.25 NaH2PO4, 2 CaCl2, 1 MgCl2, 25 NaHCO3 and 25 glucose). Throughout the experiment, the solution was continuously bubbled with carbogen (95% O2 and 5% CO2) to reach pH 7.4 at 38.0° C. Stress tests were performed on the heart by perfusing epinephrine (4 μg/L) or diltiazem (0.08 μg/L). Cardiac function was plotted in a loop diagram showing the LVV-LVP relationship (volume-pressure loop)."}, "primary cilia [3]": {"tested_on": "primary cilia", "experiment": "In vitro cilia length, acetylated-α-tubulin immunofluorescence (Example 1)", "type": "cell-based", "conditions": "after 16 hours, vs corresponding controls", "description": "Immunocytochemistry. For the in vitro cilia length measurements, cells were grown on the Formvar® polymer, as mentioned above. Primary cilia consisting of acetylated microtubule structures were measured by direct immunofluorescence with acetylated-α-tubulin staining with 0, 2, 4, 8, 16, 24 and 32 hours of incubation with different concentrations (0.1-5 μg/mL) of CT-DAu-NPs or CT-PLGA-NPs. Likewise, materials without fenoldopam loading were used as corresponding controls for the CTNDDSs (cCT-DAu-NPs and cCT-PLGA-NPs) and also fenoldopam alone used. The cells were rinsed with sodium cacodylate buffer, fixed with 3% glutaraldehyde in 0.2 M sodium cacodylate buffer for 10 minutes, and permeabilized with 1% Triton-X in sodium cacodylate for 5 min. Acetylated-α-tubulin (1:10,000 dilution, Sigma) and the secondary antibodies were also diluted in 10% FBS to decrease the background florescence; FITC fluorescence secondary antibody (1:1000; Pierce, Inc.) was used. The cells were then washed three times for 5 minutes each with cacodylate buffer and mounted with DAPI (Vector laboratories). Confocal microscopic images were obtained using an inverted Nikon Eclipse Ti confocal microscope."}, "LLC-PK1 cells": {"tested_on": "LLC-PK1 cells", "experiment": "Intracellular and ciliary Ca2+ and NO imaging under flow or magnetic field (Example 2)", "type": "cell-based, porcine", "conditions": "5HT6-mCherry-G-GECO1.0, single cell single cilium", "description": "Cells were grown as monolayer on glass-bottomed plates to enable live microscopy imaging. […] For intracellular NO measurements, cells were loaded with 20 μM DAF-FM (Cayman Chemical) for 30 minutes at 37° C. […] Fluid shear stress was then applied to cells through […] peristaltic pumps with an inlet and outlet setup. The fluid was perfused through cell monolayers at a sub-minimal shear stress of 0.5 dyn/cm^2. […] An alnico cylindrical magnet (VWR International, PA) was used to oscillate a primary cilium. This 100-gram AlNiCo magnet produced a permanent magnetic field of 1.35 T. Once a cilium was placed on the specimen holder and in the plane of view, the magnet was mounted on the top of an inverted Nikon Ti-E microscope. The magnet was then mechanically moved with an oscillation frequency of 1.6 Hz. The movement of cilia by the magnetic field was continuously recorded for the duration of the experiment. To examine how much force the magnetic field generated onto a cilium, we calculated the movement of cilia in response to the oscillating magnetic field (Supplement). […] The shear stress ranged from 0.01 to 1.0 dyn/cm^2 and was accurately measured and controlled at all times. […] Approximately 15-20 cilia were analysed for each treatment using different fluorescence filters. […] The GFP/mCherry ratios were also calculated using Nikon tracking software."}},
  "data": [
    {"compound": "Oc1ccc(C2CNCCc3c2cc(O)c(O)c3Cl)cc1", "note": "(stereo not drawn) [Fenoldopam, fenoldopam]", "values": [
      {"measurement": "NO biosynthesis", "setting": "primary cilia [1]", "result": "significantly increased"},
      {"measurement": "cytosolic Ca^2+", "setting": "primary cilia [1]", "result": "significantly increased cytosolic Ca^2+"},
      {"measurement": "CO, cardiac output", "setting": "[2]; diltiazem stress", "result": "1783 ± 32", "unit": "µL/min"},
      {"measurement": "EDPVR, end-diastolic pressure volume relation", "setting": "[2]; diltiazem stress", "result": "0.14 ± 0.01", "unit": "mmHg/μL"},
      {"measurement": "EF, ejection fraction", "setting": "[2]; diltiazem stress", "result": "49.5 ± 0.3", "unit": "%"},
      {"measurement": "ESPVR, end-systolic pressure volume relation", "setting": "[2]; diltiazem stress", "result": "2.21 ± 0.03", "unit": "mmHg/μL"},
      {"measurement": "HR, heart rate", "setting": "[2]; diltiazem stress", "result": "94 ± 11", "unit": "beat/min"},
      {"measurement": "LV EDP, end-diastolic pressure", "setting": "[2]; diltiazem stress", "result": "5.7 ± 0.2", "unit": "mmHg"},
      {"measurement": "LV EDV, end-diastolic volume", "setting": "[2]; diltiazem stress", "result": "40.0 ± 0.4", "unit": "µL"},
      {"measurement": "LV ESP, end-systolic pressure", "setting": "[2]; diltiazem stress", "result": "35.5 ± 0.5", "unit": "mmHg"},
      {"measurement": "LV ESV, end-systolic volume", "setting": "[2]; diltiazem stress", "result": "20.2 ± 0.1", "unit": "µL"},
      {"measurement": "LV Pmax, systolic pressure", "setting": "[2]; diltiazem stress", "result": "44.7 ± 0.7", "unit": "mmHg"},
      {"measurement": "SV, stroke volume", "setting": "[2]; diltiazem stress", "result": "19.8 ± 0.3", "unit": "µL"},
      {"measurement": "SW, stroke work", "setting": "[2]; diltiazem stress", "result": "772 ± 10", "unit": "mmHg · μL"},
      {"measurement": "dP/dtmax, maximum rate of LV pressure rise", "setting": "[2]; diltiazem stress", "result": "4020 ± 642", "unit": "mmHg/s"},
      {"measurement": "dP/dtmin, maximum rate of LV pressure fall", "setting": "[2]; diltiazem stress", "result": "−1537 ± 97", "unit": "mmHg/s"},
      {"measurement": "EDPVR, end-diastolic pressure volume relation", "setting": "[2]; epinephrine stress", "result": "0.16 ± 0.01", "unit": "mmHg/μL"},
      {"measurement": "EF, ejection fraction", "setting": "[2]; epinephrine stress", "result": "77.7 ± 2.0", "unit": "%"},
      {"measurement": "ESPVR, end-systolic pressure volume relation", "setting": "[2]; epinephrine stress", "result": "9.8 ± 0.88", "unit": "mmHg/μL"},
      {"measurement": "HR, heart rate", "setting": "[2]; epinephrine stress", "result": "216 ± 47", "unit": "beat/min"},
      {"measurement": "LV EDP, end-diastolic pressure", "setting": "[2]; epinephrine stress", "result": "6.4 ± 0.5", "unit": "mmHg"},
      {"measurement": "LV EDV, end-diastolic volume", "setting": "[2]; epinephrine stress", "result": "39.9 ± 0.1", "unit": "µL"},
      {"measurement": "LV ESP, end-systolic pressure", "setting": "[2]; epinephrine stress", "result": "64.2 ± 0.9", "unit": "mmHg"},
      {"measurement": "LV ESV, end-systolic volume", "setting": "[2]; epinephrine stress", "result": "8.9 ± 0.8", "unit": "µL"},
      {"measurement": "LV Pmax, systolic pressure", "setting": "[2]; epinephrine stress", "result": "85.6 ± 1.2", "unit": "mmHg"},
      {"measurement": "SV, stroke volume", "setting": "[2]; epinephrine stress", "result": "31.0 ± 0.8", "unit": "µL"},
      {"measurement": "SW, stroke work", "setting": "[2]; epinephrine stress", "result": "2569 ± 53", "unit": "mmHg · μL"},
      {"measurement": "dP/dtmax, maximum rate of LV pressure rise", "setting": "[2]; epinephrine stress", "result": "17130 ± 239", "unit": "mmHg/s"},
      {"measurement": "dP/dtmin, maximum rate of LV pressure fall", "setting": "[2]; epinephrine stress", "result": "−3844 ± 278", "unit": "mmHg/s"},
      {"measurement": "CO, cardiac output", "setting": "[2]; vehicle", "result": "3402 ± 92", "unit": "µL/min"},
      {"measurement": "EDPVR, end-diastolic pressure volume relation", "setting": "[2]; vehicle", "result": "0.13 ± 0.01", "unit": "mmHg/μL"},
      {"measurement": "EF, ejection fraction", "setting": "[2]; vehicle", "result": "62.5 ± 0.2", "unit": "%"},
      {"measurement": "ESPVR, end-systolic pressure volume relation", "setting": "[2]; vehicle", "result": "4.6 ± 0.04", "unit": "mmHg/μL"},
      {"measurement": "HR, heart rate", "setting": "[2]; vehicle", "result": "136 ± 26", "unit": "beat/min"},
      {"measurement": "LV EDP, end-diastolic pressure", "setting": "[2]; vehicle", "result": "5.0 ± 0.1", "unit": "mmHg"},
      {"measurement": "LV EDV, end-diastolic volume", "setting": "[2]; vehicle", "result": "40.0 ± 0.1", "unit": "µL"},
      {"measurement": "LV ESP, end-systolic pressure", "setting": "[2]; vehicle", "result": "52.2 ± 0.5", "unit": "mmHg"},
      {"measurement": "LV ESV, end-systolic volume", "setting": "[2]; vehicle", "result": "15.0 ± 0.1", "unit": "µL"},
      {"measurement": "LV Pmax, systolic pressure", "setting": "[2]; vehicle", "result": "69.7 ± 0.7", "unit": "mmHg"},
      {"measurement": "SV, stroke volume", "setting": "[2]; vehicle", "result": "25.0 ± 0.1", "unit": "µL"},
      {"measurement": "SW, stroke work", "setting": "[2]; vehicle", "result": "1616 ± 70", "unit": "mmHg · μL"},
      {"measurement": "dP/dtmax, maximum rate of LV pressure rise", "setting": "[2]; vehicle", "result": "7524 ± 71", "unit": "mmHg/s"},
      {"measurement": "dP/dtmin, maximum rate of LV pressure fall", "setting": "[2]; vehicle", "result": "−1625 ± 27", "unit": "mmHg/s"},
      {"measurement": "cilia length", "setting": "primary cilia [3]", "result": "significantly increased cilia length"},
      {"measurement": "intraciliary and cytosolic Ca^2+ signalling", "setting": "LLC-PK1 cells", "result": "induced less of an increase in the intraciliary Ca^2+ signalling"}
    ]}
  ]
}
